Earlier results on one compound are cited in patent publication US10550186B2, “Cancer therapy targeting intercellular adhesion molecule 4 (ICAM4)” (Beth Israel Deaconess Medical Center, Inc., priority 2014, dated 2020).

For this data set the following is noted: more cytotoxic than the comparators.

SMILES strings stand for the structures.

As to `COc1cc2cc(c1Cl)N(C)C(=O)C[C@H](OC(=O)[C@H](C)N(C)C(C)=O)[C@]1(C)O[C@H]1[C@H](C)[C@@H]1C[C@@](O)(NC(=O)O1)[C@H](OC)/C=C/C=C(\C)C2` [Maytansine], the “cytotoxicity relative to doxorubicin, methotrexate and vinca alkyloid” value is reported as 100- to 1000 fold.
